Test systems include NCI-H522 lung; OVCAR-4 ovarian; UACC-62 melanoma; SNB-75 CNS; SK-OV-3 ovarian; SK-MEL-28 melanoma; LOX IMVI melanoma; MCF7 breast; T-47D breast.
Common to all, as to test: growth of human tumour cells (NCI), 48 h

Structures are written as SMILES.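 Five concentrations, 48 hours, 96-well plates. Abbreviation: GI50, concentration required for 50% inhibition of growth. TGI marks complete inhibition of growth.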

The values that follow come from PubChem BioAssay (NCI).

Regarding `COc1ccc(CC(CO)NC(=O)OCc2ccccc2)cc1Oc1ccc(CC(CO)NC(=O)OCc2ccccc2)cc1` (stereo not given), the TGI with NCI-H522 lung is 18.4 µM; with OVCAR-4 ovarian, over 100 µM; with UACC-62 melanoma it was 29.5 µM; in the test on SNB-75 CNS, 11.7 µM; in the test with SK-OV-3 ovarian it was 28.8 µM; with SK-MEL-28 melanoma, 54.9 µM.

As to `CC(C)(C)N=c1n(C(C)(C)C)oc(=O)n1C(C)(C)C`, the TGI in the test with OVCAR-4 ovarian, with LOX IMVI melanoma, in the test on MCF7 breast, in the test with UACC-62 melanoma, with SNB-75 CNS and in the test on SK-OV-3 ovarian was over 100 µM in each case. Besides, in the test on SK-MEL-28 melanoma, the TGI is over 100 µM.

For `CN(C)c1ccc(-c2c(C#N)c(S)n(NS(=O)(=O)c3ccccc3)c(=O)c2C#N)cc1`, the TGI in the test on NCI-H522 lung is 44.5 µM; in the test with OVCAR-4 ovarian, 74.2 µM; in the test with LOX IMVI melanoma it was over 100 µM; with MCF7 breast, over 100 µM; with UACC-62 melanoma, over 100 µM; in the test on SNB-75 CNS it was over 100 µM. Besides, the TGI in the test with SK-OV-3 ovarian and with SK-MEL-28 melanoma was over 100 µM throughout.

With `COP(=O)(O)/C=C/C(NC(=O)C(Cl)(Cl)Cl)c1ccccc1` (stereo not given), the TGI with NCI-H522 lung, in the test with OVCAR-4 ovarian, in the test with LOX IMVI melanoma, in the test with MCF7 breast, in the test on UACC-62 melanoma and in the test on SNB-75 CNS was over 100 µM in each case. The TGI in the test on SK-OV-3 ovarian, in the test on T-47D breast and in the test on SK-MEL-28 melanoma was over 100 µM each time.

In the case of `C/C(N=Nc1nc2ccccc2s1)=C1/C=CC=CN1O`, the TGI in the test with NCI-H522 lung was 91.6 µM; in the test with OVCAR-4 ovarian, over 100 µM; in the test on LOX IMVI melanoma, over 100 µM; in the test with MCF7 breast, 60.5 µM; in the test with UACC-62 melanoma, over 100 µM; in the test with SK-OV-3 ovarian, over 100 µM. The TGI in the test with T-47D breast and in the test on SK-MEL-28 melanoma was over 100 µM in each case.

Regarding `CN(C)c1nc(=NCc2ccncc2)ss1`, the TGI is over 100 µM in the test on NCI-H522 lung; 39.2 µM with OVCAR-4 ovarian; 31.1 µM in the test with LOX IMVI melanoma; over 100 µM in the test with MCF7 breast; over 48.1 µM in the test with UACC-62 melanoma; 34.7 µM in the test on SNB-75 CNS. The TGI in the test with SK-OV-3 ovarian was over 64.6 µM; in the test with T-47D breast, over 51.8 µM; with SK-MEL-28 melanoma, over 93.9 µM.

As for `CC(C)=CCc1c2c(c3occ(-c4ccc(O)c(O)c4)c(=O)c3c1O)C=CC(C)(C)O2`, the TGI amounted to 0.458 µM in the test with NCI-H522 lung; 3.39 µM in the test on OVCAR-4 ovarian; 5.22 µM in the test on LOX IMVI melanoma; 11.4 µM in the test with MCF7 breast; 14.2 µM in the test on UACC-62 melanoma; 8.51 µM with SNB-75 CNS. For the same compound, the TGI with SK-OV-3 ovarian stood at 20.5 µM; in the test on T-47D breast, 10.5 µM; in the test with SK-MEL-28 melanoma it was 8.66 µM.

Take `CC(=O)OC[C@]1(C(=O)C(O)c2ccoc2)[C@H](C)CC[C@@]23COC(=O)C2=CCC[C@@H]31` (stereo not given in full): the TGI with NCI-H522 lung, with OVCAR-4 ovarian, in the test with LOX IMVI melanoma, in the test with MCF7 breast, in the test with UACC-62 melanoma and with SNB-75 CNS was over 10 µM throughout. For the same compound, the TGI in the test with SK-OV-3 ovarian and in the test with T-47D breast was over 10 µM throughout.

As to `N#Cc1nc(-c2cc([N+](=O)[O-])cc([N+](=O)[O-])c2)oc1N`, the TGI with NCI-H522 lung, in the test with OVCAR-4 ovarian, with LOX IMVI melanoma, in the test on MCF7 breast, in the test on UACC-62 melanoma and in the test on SNB-75 CNS was over 10 µM in each case. Moreover, the TGI with SK-OV-3 ovarian, in the test on T-47D breast and in the test on SK-MEL-28 melanoma was over 10 µM each time.

Take `C=C(C)CCC(=O)[C@](C)(O)[C@H]1[C@H](O)C[C@@]2(C)[C@@H]3CCc4c(cc(OC5OC(CO)C(O)C(O)C5O)c(O)c4C)C3(C)C(=O)C[C@]12C` (stereo not given in full): the TGI in the test on NCI-H522 lung, with OVCAR-4 ovarian, in the test on LOX IMVI melanoma, in the test with MCF7 breast, in the test on UACC-62 melanoma and in the test with SNB-75 CNS was over 100 µM in each case. The TGI in the test with SK-OV-3 ovarian, in the test with T-47D breast and in the test with SK-MEL-28 melanoma was over 100 µM each time.

As for `CCCCCCCCCC[C@H](O)[C@H]1CC[C@H]([C@H]2CC[C@H]([C@H](O)CC[C@H](O)CCCCCCC[C@@H](O)CC3=C[C@H](C)OC3=O)O2)O1`, the TGI was over 100 µM in the test on NCI-H522 lung; over 100 µM in the test on OVCAR-4 ovarian; over 100 µM in the test with LOX IMVI melanoma; over 100 µM in the test with MCF7 breast; 79.7 µM in the test on SNB-75 CNS; over 100 µM in the test on T-47D breast. Also, the TGI in the test on SK-MEL-28 melanoma was over 100 µM. The GI50 in the test with LOX IMVI melanoma was 1.26 µM; in the test with MCF7 breast, 3.98 µM; with T-47D breast, 2.17 µM; with SK-MEL-28 melanoma it was over 100 µM.

Regarding `CCOP(=O)(OCC)C1C(CO)OC(n2ccc(=O)[nH]c2=O)C1O` (stereo not given), the TGI with NCI-H522 lung, in the test on OVCAR-4 ovarian, with LOX IMVI melanoma, in the test on UACC-62 melanoma, in the test with SNB-75 CNS and in the test with T-47D breast was over 100 µM each time. Also, the TGI with SK-MEL-28 melanoma is over 100 µM.

With `CCC1=CCC23C(=O)C=CC(=O)C2(C1)C(=O)c1cccc(OC)c1C3=O` (stereo not given), the TGI with NCI-H522 lung was over 100 µM; with OVCAR-4 ovarian it was 26.1 µM; with LOX IMVI melanoma, 29.9 µM; in the test on MCF7 breast, 32.8 µM; in the test with UACC-62 melanoma, 37.2 µM; in the test on SNB-75 CNS it was 33.5 µM. Also, the TGI was 22.6 µM in the test with T-47D breast and 33.3 µM with SK-MEL-28 melanoma.

`N#Cc1c(-c2ccccc2)/c(=C\Nc2ccc(Cl)cc2)c(=O)n2c1nc1ccccc12`: the TGI with NCI-H522 lung, in the test with OVCAR-4 ovarian, in the test on LOX IMVI melanoma, in the test on MCF7 breast, in the test with SNB-75 CNS and in the test with SK-OV-3 ovarian was over 100 µM in each case. Moreover, the TGI with T-47D breast and with SK-MEL-28 melanoma was over 100 µM in each case.

Regarding `O=C1CCSSCCC(=O)NCCN1`, the TGI with NCI-H522 lung, with OVCAR-4 ovarian, with LOX IMVI melanoma, with UACC-62 melanoma, in the test with SK-OV-3 ovarian and in the test on T-47D breast was over 100 µM each time. The compound also had a TGI in the test with SK-MEL-28 melanoma of over 100 µM.

Regarding `COc1ccc(Nc2nc3ccc(C(F)(F)F)cc3nc2C(=O)O)cc1OC`, the TGI with NCI-H522 lung is 84.6 µM; in the test with OVCAR-4 ovarian, over 100 µM; in the test with LOX IMVI melanoma, over 100 µM; with MCF7 breast, over 100 µM; in the test on UACC-62 melanoma it was over 100 µM; with SNB-75 CNS, 81.5 µM. The TGI with SK-MEL-28 melanoma is over 100 µM.
